This passage reports MIC results from patent US11279735B2, “Cyclic peptide antibiotics” (priority 2017, dated 2022).

Usually MIC stands for the least concentration at which growth counts as inhibited. Lower therefore signals a more susceptible organism.

SMILES strings stand for the structures. Values after ≈ are worked out from the molar mass of the structure shown. *1 amine or outer side, *2 acyl side, *3 side chain or, on linkers, in order; H or OH if unused. Where a SMILES comes first, the peptide text is derived from it. [ ]: non-standard residue; d: D form. X18 = CCCCCC[C@@H](OCCN[*:1])[C@@H](Cc1ccc(C)cc1)C(=O)[*:2]; X23 = CCCCCCCCCC[C@@H](OCCN[*:1])[C@@H](C)C(=O)[*:2]; X14 = CCCCCC[C@@H](OCCN[*:1])[C@@H](C)C(=O)[*:2]; aIle = CC[C@@H](C)[C@H](N)C(=O)O; aThr = C[C@H](O)[C@H](N)C(=O)O; NMeL = CN[C@@H](CC(C)C)C(=O)O; Chg = N[C@H](C(=O)O)C1CCCCC1; Dap = NC[C@H](N)C(=O)O

For the first test, the system named is Escherichia coli (E. coli) strain CFT073 ATCC 700928. The test is classed as cell-based. To be noted: ATCC 700928, 22 h. Put shortly:
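MICs were read after 22 h at 35 °C, with bacteria added to a final OD600 of 0.0005. Compounds were serially diluted 2-fold over ten concentrations from a top of 64, 4, 0.5 or 0.13 μg/mL (protocols 1–4). Medium was cation-adjusted Mueller Hinton II broth plus 0.002% Tween-80, following CLSI M07-A8.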
`CCCCCC[C@H]1OC(=O)CNC(=O)[C@H]([C@H](C)O)NC(=O)[C@H](CN)NC(=O)[C@H](c2ccccc2)NC(=O)[C@H](CC(C)C)N(C)C(=O)[C@@H]1C` [Example 98, (6S,9S,12S,15S,18R,19R)-9-(aminomethyl)-19-hexyl-15-isobutyl-16,18-dimethyl-12-phenyl-6-[(1S)-1-hydroxyethyl]-1-oxa-4,7,10,13,16-pentazacyclononadecane-2,5,8,11,14,17-hexone] yielded an MIC of 71 µM (≈ 47.9 µg/mL).

As for `CCCCCCCCCC[C@H]1OCCNC(=O)[C@H](CO)NC(=O)[C@H](CN)NC(=O)[C@H]([C@H](C)CC)NC(=O)[C@H](CC(C)C)N(C)C(=O)[C@@H]1C` [Example 99, (6S,9S,12S,15S,18R,19R)-9-(aminomethyl)-19-decyl-6-(hydroxymethyl)-15-isobutyl-16,18-dimethyl-12-[(1R)-1-methylpropyl]-1-oxa-4,7,10,13,16-pentazacyclononadecane-5,8,11,14,17-pentone] (cyclo([Dap]S[X23][NMeL][aIle])), the MIC was found to be 17 µM (≈ 11.6 µg/mL).

In turn, `CCCCCC[C@H]1OC(=O)CNC(=O)[C@H]([C@H](C)O)NC(=O)[C@H]([C@H](C)O)NC(=O)[C@H]([C@H](C)CC)NC(=O)[C@H](CC(C)C)N(C)C(=O)[C@@H]1C` [Example 100, (6S,9S,12S,15S,18R,19R)-19-hexyl-15-isobutyl-16,18-dimethyl-6,9-bis[(1S)-1-hydroxyethyl]-12-[(1R)-1-methylpropyl]-1-oxa-4,7,10,13,16-pentazacyclononadecane-2,5,8,11,14,17-hexone] displayed an MIC of 35 µM (≈ 23.4 µg/mL).

In turn, `CCCCCC[C@H]1OC(=O)CNC(=O)[C@H]([C@H](C)O)NC(=O)[C@H](CN)NC(=O)[C@H](C2CCCCC2)NC(=O)[C@H](CCC)N(C)C(=O)[C@@H]1C` [Example 101, (6S,9S,12S,15S,18R,19R)-9-(aminomethyl)-12-cyclohexyl-19-hexyl-16,18-dimethyl-15-propyl-6-[(1S)-1-hydroxyethyl]-1-oxa-4,7,10,13,16-pentazacyclononadecane-2,5,8,11,14,17-hexone] had an MIC of 4.1 µM (≈ 2.73 µg/mL).

In turn, `CCCCCC[C@H]1OC(=O)CNC(=O)[C@H]([C@@H](O)CO)NC(=O)[C@H](CN)NC(=O)[C@H](C2CCCCC2)NC(=O)[C@H](CC(C)C)N(C)C(=O)[C@@H]1C` [Example 102, (6S,9S,12S,15S,18R,19R)-9-(aminomethyl)-12-cyclohexyl-19-hexyl-15-isobutyl-16,18-dimethyl-6-[(1R)-1,2-dihydroxyethyl]-1-oxa-4,7,10,13,16-pentazacyclononadecane-2,5,8,11,14,17-hexone] had an MIC of 3.1 µM (≈ 2.16 µg/mL).

Turning to `CCCC(C)(C)CC[C@H]1OC(=O)CNC(=O)[C@H]([C@H](C)O)NC(=O)[C@H](CN)NC(=O)[C@H]([C@H](C)CC)NC(=O)[C@H](CC(C)C)N(C)C(=O)[C@@H]1C` [Example 103, (6S,9S,12S,15S,18R,19R)-9-(aminomethyl)-19-(3,3-dimethylhexyl)-15-isobutyl-16,18-dimethyl-6-[(1S)-1-hydroxyethyl]-12-[(1R)-1-methylpropyl]-1-oxa-4,7,10,13,16-pentazacyclononadecane-2,5,8,11,14,17-hexone], the MIC turned out to be 3.1 µM (≈ 2.12 µg/mL).

Compound `CCCCCC[C@H]1OC(=O)CNC(=O)[C@H]([C@H](C)O)NC(=O)[C@H](CN)NC(=O)[C@H]([C@H](C)CC)NC(=O)[C@H](CC2CCCC2)N(C)C(=O)[C@@H]1C` [Example 104, (6S,9S,12S,15S,18R,19R)-9-(aminomethyl)-15-(cyclopentylmethyl)-19-hexyl-16,18-dimethyl-6-[(1S)-1-hydroxyethyl]-12-[(1R)-1-methylpropyl]-1-oxa-4,7,10,13,16-pentazacyclononadecane-2,5,8,11,14,17-hexone] displayed an MIC of 6.3 µM (≈ 4.29 µg/mL).

In turn, `CCCCCC[C@H]1OC(=O)CNC(=O)[C@H]([C@H](C)O)NC(=O)[C@H](CN)NC(=O)[C@H](C2CCCCC2)NC(=O)[C@H](CC(C)C)N(C)C(=O)[C@@H]1CCOc1ccc(C)cc1` [Example 106, (6S,9S,12S,15S,18R,19R)-9-(aminomethyl)-12-cyclohexyl-19-hexyl-15-isobutyl-16-methyl-18-[2-(4-methylphenoxy)ethyl]-6-[(1S)-1-hydroxyethyl]-1-oxa-4,7,10,13,16-pentazacyclononadecane-2,5,8,11,14,17-hexone] had an MIC of 6.3 µM (≈ 5.05 µg/mL).

`CC[C@@H](C)[C@@H]1NC(=O)[C@H](CC(C)C)N(C)C(=O)[C@H](C)[C@@H](CCCCCC(F)(F)F)OC(=O)CNC(=O)[C@H]([C@H](C)O)NC(=O)[C@H](CN)NC1=O` [Example 107, (6S,9S,12S,15S,18R,19R)-9-(aminomethyl)-15-isobutyl-16,18-dimethyl-6-[(1S)-1-hydroxyethyl]-12-[(1R)-1-methylpropyl]-19-(6,6,6-trifluorohexyl)-1-oxa-4,7,10,13,16-pentazacyclononadecane-2,5,8,11,14,17-hexone] came in with an MIC of 25 µM (≈ 17.7 µg/mL).

Compound `CCCCCC[C@H]1OC(=O)CNC(=O)[C@H]([C@H](C)O)NC(=O)[C@H](CN)NC(=O)[C@H](C2CCCCC2)NC(=O)[C@H](CC(C)C)N(C)C(=O)[C@@H]1CCc1ccc(-c2ccccc2)cc1` [Example 108, (6S,9S,12S,15S,18R,19R)-9-(aminomethyl)-12-cyclohexyl-19-hexyl-15-isobutyl-16-methyl-18-[2-(4-phenylphenyl)ethyl]-6-[(1S)-1-hydroxyethyl]-1-oxa-4,7,10,13,16-pentazacyclononadecane-2,5,8,11,14,17-hexone] yielded an MIC of 35 µM (≈ 29.6 µg/mL).

`CCCC[C@H]1OC(=O)CNC(=O)[C@H]([C@H](C)O)NC(=O)[C@H](CN)NC(=O)[C@H](C2CCCCC2)NC(=O)[C@H](CC(C)C)N(C)C(=O)[C@@H]1Cc1ccc(C)cc1` [Example 109, (6S,9S,12S,15S,18R,19R)-9-(aminomethyl)-19-butyl-12-cyclohexyl-15-isobutyl-16-methyl-18-(p-tolylmethyl)-6-[(1S)-1-hydroxyethyl]-1-oxa-4,7,10,13,16-pentazacyclononadecane-2,5,8,11,14,17-hexone]: the MIC was 25 µM (≈ 18.6 µg/mL).

For the compound `CCCCCC[C@H]1OCCNC(=O)[C@H](CO)NC(=O)[C@H](CN)NC(=O)[C@H]([C@H](C)CC)NC(=O)[C@H](CC(C)C)N(C)C(=O)[C@@H]1Cc1ccc(C)cc1` [Example 110, (6S,9S,12S,15S,18R,19R)-9-(aminomethyl)-19-hexyl-6-(hydroxymethyl)-15-isobutyl-16-methyl-18-(p-tolylmethyl)-12-[(1R)-1-methylpropyl]-1-oxa-4,7,10,13,16-pentazacyclononadecane-5,8,11,14,17-pentone] (cyclo([Dap]S[X18][NMeL][aIle])), the MIC amounted to 25 µM (≈ 17.9 µg/mL).

On to `CCCCCC[C@H]1OC(=O)CNC(=O)[C@H]([C@H](C)O)NC(=O)[C@H](CN)NC(=O)[C@H](C2CCCCC2)NC(=O)[C@H](CC)N(C)C(=O)[C@@H]1C` [Example 111, (6S,9S,12S,15S,18R,19R)-9-(aminomethyl)-12-cyclohexyl-15-ethyl-19-hexyl-16,18-dimethyl-6-[(1S)-1-hydroxyethyl]-1-oxa-4,7,10,13,16-pentazacyclononadecane-2,5,8,11,14,17-hexone], for which the MIC worked out at 8.8 µM (≈ 5.74 µg/mL).

`Cc1ccc(C[C@H]2C(=O)N(C)[C@@H](CC(C)C)C(=O)N[C@@H](C3CCCCC3)C(=O)N[C@@H](CN)C(=O)N[C@@H]([C@H](C)O)C(=O)NCC(=O)O[C@@H]2CCC(F)(F)F)cc1` [Example 112, (6S,9S,12S,15S,18R,19R)-9-(aminomethyl)-12-cyclohexyl-15-isobutyl-16-methyl-18-(p-tolylmethyl)-6-[(1S)-1-hydroxyethyl]-19-(3,3,3-trifluoropropyl)-1-oxa-4,7,10,13,16-pentazacyclononadecane-2,5,8,11,14,17-hexone] showed an MIC of 71 µM (≈ 55.6 µg/mL).

Turning to `CCCCCC[C@H]1OCCNC(=O)[C@H](CO)NC(=O)[C@H](CN)NC(=O)[C@H]([C@H](C)CC)NC(=O)[C@H](CC(C)C)N(C)C(=O)[C@@H]1C` [Example 113, (6S,9S,12S,15S,18R,19R)-9-(aminomethyl)-19-hexyl-6-(hydroxymethyl)-15-isobutyl-16,18-dimethyl-12-[(1R)-1-methylpropyl]-1-oxa-4,7,10,13,16-pentazacyclononadecane-5,8,11,14,17-pentone] (cyclo([Dap]S[X14][NMeL][aIle])), the MIC turned out to be 50 µM (≈ 31.3 µg/mL).

Compound `CC(C)C[C@H]1C(=O)N[C@@H](C2CCCCC2)C(=O)N[C@@H](CN)C(=O)N[C@@H]([C@H](C)O)C(=O)NCC(=O)O[C@H](CCCCCCC(C)(C)O)[C@@H](C)C(=O)N1C` [Example 114, (6S,9S,12S,15S,18R,19R)-9-(aminomethyl)-12-cyclohexyl-19-(7-hydroxy-7-methyl-octyl)-15-isobutyl-16,18-dimethyl-6-[(1S)-1-hydroxyethyl]-1-oxa-4,7,10,13,16-pentazacyclononadecane-2,5,8,11,14,17-hexone] registered an MIC of 15 µM (≈ 11.1 µg/mL).

Take `CCCCCC[C@H]1OCCNC(=O)[C@H]([C@H](C)O)NC(=O)[C@H](CN)NC(=O)[C@H](C2CCCCC2)NC(=O)[C@H](CC(C)C)N(C)C(=O)[C@@H]1C` [Example 115, (6S,9S,12S,15S,18R,19R)-9-(aminomethyl)-12-cyclohexyl-19-hexyl-15-isobutyl-16,18-dimethyl-6-[(1S)-1-hydroxyethyl]-1-oxa-4,7,10,13,16-pentazacyclononadecane-5,8,11,14,17-pentone] (cyclo([Chg][Dap][aThr][X14][NMeL])): the MIC amounted to 8.7 µM (≈ 5.8 µg/mL).

The test is the same for the next values; noted with them: E. coli CFT073 ATCC 700928; Mueller Hinton II cation adjusted Broth with 0.002% v/v Tween-80; 35° C. for 22 hours; lowest concentration that completely prevented bacterial growth.
`C=CCCCC[C@H]1OC(=O)CNC(=O)[C@H]([C@H](C)O)NC(=O)[C@H](CN)NC(=O)[C@H](C2CCCCC2)NC(=O)[C@H](CC(C)C)N(C)C(=O)[C@@H]1C` [Example 105, (6S,9S,12S,15S,18R,19R)-9-(aminomethyl)-12-cyclohexyl-19-hex-5-enyl-15-isobutyl-16,18-dimethyl-6-[(1S)-1-hydroxyethyl]-1-oxa-4,7,10,13,16-pentazacyclononadecane-2,5,8,11,14,17-hexone] gave an MIC of 5.2 µM (≈ 3.53 µg/mL).
